From ChEMBL document CHEMBL1131585, “Novel orally active growth hormone secretagogues” (J Med Chem, 1998)
pEC50, pIC50: −log10 of the molar value. Where a SMILES comes first, the peptide text is derived from it. [ ]: non-standard residue; d: D form. d2Nal = N[C@H](Cc1ccc2ccccc2c1)C(=O)O; Aib = CC(C)(N)C(=O)O

Tests used:
[1] = biological target: Growth hormone secretagogue receptor type 1 (Rattus norvegicus) (UniProt O08725); assay: (§1) Tested for GH-releasing property using classical rat pituitary cell assay; assay type: functional, cell-based; conditions: Pituitary gland cell
Growth hormone secretagogue receptor type 1 (Rattus norvegicus), sequence (O08725 whole entry): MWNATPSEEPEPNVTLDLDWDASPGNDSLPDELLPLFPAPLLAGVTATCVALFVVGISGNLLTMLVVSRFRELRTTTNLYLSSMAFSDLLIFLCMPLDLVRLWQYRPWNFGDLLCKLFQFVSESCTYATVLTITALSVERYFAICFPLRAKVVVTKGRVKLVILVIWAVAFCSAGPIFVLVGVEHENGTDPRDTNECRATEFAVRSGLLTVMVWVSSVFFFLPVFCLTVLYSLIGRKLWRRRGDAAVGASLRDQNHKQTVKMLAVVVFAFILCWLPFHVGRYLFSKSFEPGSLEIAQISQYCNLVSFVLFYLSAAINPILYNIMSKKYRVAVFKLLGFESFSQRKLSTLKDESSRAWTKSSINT

[2] = biological target: Growth hormone secretagogue receptor type 1 (Rattus norvegicus, UniProt O08725); assay: as §1; assay type: functional, cell-based, Pituitary gland cell
Growth hormone secretagogue receptor type 1, sequence (O08725 whole entry): as above

Sus scrofa [3] = assay: Tested for in vivo activity against GH release after iv administration in swine
[4] = Oral bioavailability in dog (Beagle); assay type: ADME, organism-based, Canis lupus familiaris; conditions: in vivo; for bioavailability: beagle
Rattus norvegicus [5] = species on record: Rattus norvegicus; assay: Compound was tested against the effect of N-acetyl-Tyr-D-Arg(1-29)GHRH-NH2 on the release of growth hormone from pituitary cells in rat; assay type: functional, cell-based; conditions: Pituitary gland cell
[6] = Oral bioavailability in dog (Beagle) (dose 2.5 mg/kg); assay type: ADME, organism-based, Canis lupus familiaris; conditions: in vivo
Rattus norvegicus [7] = species on record: Rattus norvegicus; assay: Compound was tested against the effect of D-Lys3-GHRP-6 on the release of growth hormone from pituitary cells in rat; assay type: functional, cell-based; conditions: Pituitary gland cell
[8] = Compound was tested for maximum concentration in blood after 2.5 mg/kg administration (Po) in Beagle dogs; nmol/L maximum blood concentration; conditions: dog
Rattus norvegicus [9] = species on record: Rattus norvegicus; assay: Compound was tested against the effect of L-692400 on the release of growth hormone from pituitary cells in rat; assay type: functional, cell-based; conditions: Pituitary gland cell
[10] = Compound was tested for oral bioavailability after 10 mg/kg administration (Po) in Beagle dogs; F % Oral Bioavailability; assay type: ADME, organism-based, Canis lupus familiaris; conditions: dog, in vivo
Sus scrofa [11] = assay: Compound was tested for efficacy against GH release iv administration in swine; assay type: functional
Sus scrofa [12] = assay: Compound was tested for potency against GH release iv administration in swine; assay type: functional
[13] = Compound was tested for maximum concentration in blood after 10 mg/kg administration (Po) in Beagle dogs; nmol/L maximum blood concentration; conditions: dog
Rattus norvegicus [14] = species on record: Rattus norvegicus; assay: Compound was tested against the effect of substance P antagonist on the release of growth hormone from pituitary cells in rat; assay type: functional, cell-based; conditions: Pituitary gland cell
Canis familiaris [15] = assay: Compound was tested Growth Hormone(GH) release after 10 mg/kg administration (Po) in Beagle dogs; assay type: functional, organism-based; parameters: dose 10 mg/kg; conditions: Canis lupus familiaris
Canis familiaris [16] = assay: Compound was tested Growth Hormone(GH) release after 2.5 mg/kg administration (Po) in Beagle dogs; assay type: functional, organism-based; parameters: dose 2.5 mg/kg; conditions: Canis lupus familiaris
Canis familiaris [17] = assay: Compound was tested Growth Hormone(GH) release after 0.5 mg/kg administration (Po) in Beagle dogs; assay type: functional, organism-based; parameters: dose 0.5 mg/kg; conditions: Canis lupus familiaris
[18] = Compound was tested for maximum blood concentration after 2.5 mg/kg administration (Po) in Beagle dogs; nM/L maximum blood concentration; assay type: ADME, organism-based, Canis lupus familiaris; parameters: route oral, dose 2.5 mg/kg; conditions: dog
[19] = Compound was tested for oral bioavailability after 0.5 mg/kg administration (Po) in Beagle dogs; fpo % Oral Bioavailability; assay type: ADME, organism-based, Canis lupus familiaris; conditions: dog, in vivo
[20] = Compound was tested for maximum blood concentration after 0.5 mg/kg administration (Po) in Beagle dogs; nM/L maximum blood concentration; assay type: ADME, organism-based, Canis lupus familiaris; parameters: route oral, dose 0.5 mg/kg; conditions: dog
[21] = Compound was tested for maximum blood concentration after 10 mg/kg administration (Po) in Beagle dogs; nM/L maximum blood concentration; assay type: ADME, organism-based, Canis lupus familiaris; parameters: route oral, dose 10 mg/kg; conditions: dog
[22] = Compound was tested for oral bioavailability after 10 mg/kg administration (Po) in Beagle dogs; fpo % Oral Bioavailability; assay type: ADME, organism-based, Canis lupus familiaris; conditions: dog, in vivo
Sus scrofa [23] = assay: Compound was tested for potency against GH release upon iv administration in swine; assay type: functional
Sus scrofa [24] = assay: Compound was tested for efficacy against GH release upon iv administration in swine; assay type: functional

Row | Compound | Emax [1] | pEC50 [2] | Cmax [GH] (Sus scrofa [3]) | bioavailability [4] | further results
1 | CNC(=O)[C@@H](Cc1ccccc1)N(C)C(=O)[C@@H](COCc1ccccc1)N(C)C(=O)/C=C/CC(C)(C)N | 125% | 8.30 | 0.4 ng/mL | 11% | –
2 | C[C@@H](O)CNC(=O)[C@@H](Cc1ccccc1)N(C)C(=O)[C@@H](Cc1ccc2ccccc2c1)N(C)C(=O)/C=C/CC(C)(C)N (stereo in doubt; 7o) [listing 1 of 2 here] | 105% | – | 9 ng/mL | – | –
3 | CNC(=O)[C@@H](Cc1cccs1)N(C)C(=O)[C@@H](Cc1ccc2ccccc2c1)N(C)C(=O)/C=C/CC(C)(C)N | 110% | 8.70 | 55 ng/mL | 15% | –
4 | C[C@@H](O)CNC(=O)[C@@H](Cc1ccccc1)N(C)C(=O)[C@@H](Cc1ccc2ccccc2c1)N(C)C(=O)/C=C/CC(C)(C)N (stereo in doubt; 7o) [listing 2 of 2 here] | – | 8.05 | – | – | F [4]: 0%
5 | C[C@H](O)CNC(=O)[C@@H](Cc1ccc(F)c(F)c1)N(C)C(=O)[C@@H](Cc1ccc2ccccc2c1)N(C)C(=O)/C=C/CC(C)(C)N | 100% | 8.30 | 5 ng/mL | – | –
6 | CN(C(=O)/C=C/CC(C)(C)N)[C@H](Cc1cccc2ccccc12)C(=O)N(C)[C@H](Cc1ccccc1)C(=O)NCC1CCCO1 (stereo partly drawn) | 110% | 7.68 | – | – | –
7 | CNC(=O)[C@@H](Cc1ccccc1)N(C)C(=O)[C@@H](Cc1csc2ccccc12)N(C)C(=O)/C=C/CC(C)(C)N | 80% | 7.46 | – | – | –
8 | C[C@@H](O)CNC(=O)[C@@H](Cc1ccccc1)N(C)C(=O)[C@@H](Cc1ccc2ccccc2c1)N(C)C(=O)/C=C/CC(C)(C)N (stereo in doubt; 7b) [listing 1 of 2 here] | – | 8.05 | – | – | pIC50 (Rattus norvegicus [5]): < 5.00; bioavailability [6]: 21%; pIC50 (Rattus norvegicus [7]): 5.10; Cmax [8]: 260 nM; pIC50 (Rattus norvegicus [9]): 4.96; bioavailability [10]: 41%; Emax (Sus scrofa [11]): 96 ng/mL; ED50 (Sus scrofa [12]): 0.031 µmol/kg; Cmax [13]: 2320 nM; F [4]: 25%; pIC50 (Rattus norvegicus [14]): 6.85
9 | CNC(=O)[C@@H](Cc1ccc(I)cc1)N(C)C(=O)[C@@H](Cc1ccc2ccccc2c1)N(C)C(=O)/C=C/CC(C)(C)N | 110% | 7.70 | 0.4 ng/mL | 26% | –
10 | CCNC(=O)[C@@H](Cc1ccccc1)N(C)C(=O)[C@@H](Cc1ccc2ccccc2c1)N(C)C(=O)/C=C/CC(C)(C)N | 105% | 7.89 | – | 14% | –
11 | CN(C(=O)/C=C/CC(C)(C)N)[C@H](Cc1ccc2ccccc2c1)C(=O)N(C)[C@H](Cc1ccccc1)C(=O)NCC1CC1 | 105% | 8.74 | 14 ng/mL | 24% | –
12 | CNC(=O)[C@@H](Cc1ccccc1)N(C)C(=O)[C@@H](Cc1ccc(-c2ccccc2)cc1)N(C)C(=O)/C=C/CC(C)(C)N | 120% | 8.52 | – | 0% | –
13 | C[C@@H](O)CNC(=O)[C@@H](Cc1ccccc1)N(C)C(=O)[C@@H](Cc1ccc2ccccc2c1)N(C)C(=O)/C=C/CC(C)(C)N (stereo in doubt; 7b) [listing 2 of 2 here] | 130% | – | 26 ng/mL | – | Cmax [GH] (Canis familiaris [15]): 42.5 ng/mL; Cmax [GH] (Canis familiaris [16]): 6.6 ng/mL; Cmax [GH] (Canis familiaris [17]): 1.8 ng/mL
14 | CNC(=O)[C@@H](Cc1ccc(F)cc1)N(C)C(=O)[C@@H](Cc1ccc2ccccc2c1)N(C)C(=O)/C=C/CC(C)(C)N | 90% | 8.10 | 30 ng/mL | 49% | Cmax [GH] (Canis familiaris [15]): 12 ng/mL; Cmax [18]: 247 nM; pIC50 (Rattus norvegicus [5]): < 5.00; bioavailability [19]: 53%; bioavailability [6]: 55%; Cmax [GH] (Canis familiaris [16]): 4.5 ng/mL; pIC50 (Rattus norvegicus [7]): 5.05; pIC50 (Rattus norvegicus [9]): 4.85; Cmax [GH] (Canis familiaris [17]): 2.7 ng/mL; Emax (Sus scrofa [11]): 86 ng/mL; ED50 (Sus scrofa [12]): 0.129 µmol/kg; Cmax [20]: 99 nM; Cmax [21]: 3030 nM; pIC50 (Rattus norvegicus [14]): 7.31; bioavailability [22]: 138%
15 | CNC(=O)[C@@H](Cc1ccccc1)N(C)C(=O)[C@@H](Cc1cccc2ccccc12)N(C)C(=O)/C=C/CC(C)(C)N | 115% | 7.62 | 12 ng/mL | – | –
16 | C[C@H](O)CNC(=O)[C@@H](Cc1cccs1)N(C)C(=O)[C@@H](Cc1ccc2ccccc2c1)N(C)C(=O)/C=C/CC(C)(C)N | 120% | 7.35 | – | – | –
17 | CC(C)(N)C(=O)N[C@@H](Cc1c[nH]cn1)C(=O)N[C@H](Cc1ccc2ccccc2c1)C(=O)N[C@H](Cc1ccccc1)C(=O)N[C@@H](CCCCN)C(N)=O [IPAMORELIN] (H-[Aib]H[d2Nal][dF]K-NH2) | – | – | – | – | Emax (Sus scrofa [11]): 65 ng/mL; ED50 (Sus scrofa [12]): 0.0023 µmol/kg
18 | CNC(=O)[C@@H](Cc1ccccc1)N(C)C(=O)[C@@H](Cc1ccc2ccccc2c1)N(C)C(=O)/C=C/CC(C)(C)N [TABIMORELIN] | 110% | 7.74 | – | – | –
19 | CNC(=O)[C@@H](Cc1ccc(F)c(F)c1)N(C)C(=O)[C@@H](Cc1ccc2ccccc2c1)N(C)C(=O)/C=C/CC(C)(C)N | 85% | 7.77 | 6 ng/mL | 54% | –
20 | C[C@H](NC(=O)C(Cc1c[nH]c2ccccc12)NC(=O)[C@@H](N)Cc1c[nH]cn1)C(=O)N[C@@H](Cc1c[nH]c2ccccc12)C(=O)NC(Cc1ccccc1)C(=O)N[C@@H](CCCCN)C(N)=O (single isomer, unassigned) | 100% | – | – | – | pIC50 (Rattus norvegicus [5]): < 5.00; ED50 (Sus scrofa [23]): 0.0039 µmol/kg; pIC50 (Rattus norvegicus [7]): 5.10; pIC50 (Rattus norvegicus [9]): 5.00; Emax (Sus scrofa [24]): 74 ng/mL; pIC50 (Rattus norvegicus [14]): 7.42
21 | CN(C(=O)/C=C/CC(C)(C)N)[C@H](Cc1ccc2ccccc2c1)C(=O)N(C)[C@H](Cc1ccccc1)C(=O)NCC1CCCO1 (stereo partly drawn) | 100% | 7.80 | 9 ng/mL | 17% | –
